These results are taken from patent publication US11253497B2, “Use of derivatives of polyunsaturated fatty acids as medicaments” (Lipopharma Therapeutics, S.L., priority 2009, dated 2022).

Data set [1] deals with α-synuclein. The experiment in a line: Expression of α-synuclein in neuronal cultures (cells P19). The class given is cell-based. Particulars: untreated cells 100%.
In data set [2] the test system is Jurkat cells. The experiment in a line: Human leukaemia (Jurkat cells). The class given is cell-based. Particulars: 72 hours. The protocol: (§1) Overall, it may be seen that the series of compounds A and B are the best, so the effectiveness of these series against the development of leukaemia and liver cancer (Tables 9 and 10) was tested.
Data set [3] has as its system Spontaneously Hypertensive Rats (SHR). The experiment in a line: Blood pressure of SHR rats (cuff-tail method). The class given is in vivo, rat. Particulars: 200 mg/kg day p.o., 30 days, before treatment 214 mmHg. Summed up: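 SHR rats dosed orally at 200 mg/kg day for 30 days against water vehicle. At study end, blood pressure taken non-invasively by tail cuff and apoA-I assessed as gene expression by RT-PCR.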

The test system of data set [4] is brain cancer cell (glioma) U118. The experiment in a line: Brain cancer (glioma) U118 cell growth. The class given is cell-based. To be noted: 72 hours of incubation. The method in brief: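 Cell counts taken with compound, mean of three independent experiments. Applies to U118.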
The nature of data set [5]: Lamellar-to-hexagonal (HII) transition temperature in DEPE model membranes by Differential Scanning Calorimetry. The class given is physicochemical. To be noted: for Temperature of lamellar-to-hexagonal transition: DEPE membranes, DEPE:D-PUFA 10:1 (mol:mol); for Transition temperature (lamellar to HII): DEPE (4 mM), 200 μM compound, series A, control 64.5. Summed up:
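Lamellar-to-HII transition temperature of DEPE membranes measured by differential scanning calorimetry, with DEPE:fatty acid at 10:1 mol:mol. Control membranes contained no fatty acid.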

The subject of data set [6] is P19 cells. The experiment in a line: NMDA-induced neuronal death in P19 cells. The class given is cell-based. To be noted: for Neuronal death (P19 cells) after treatment with NMDA: NMDA alone 100% death, control without NMDA 0%, negative values = proliferation.
Data set [7] has as its system TNF-α. The experiment in a line: Production of TNF-α in serum of LPS-injected C57BL6/J mice. The class given is in vivo. To be noted: LPS 20 μg i.p. (100%), 200 mg/kg p.o. Summed up: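 C57BL6/J mice given intraperitoneal LPS (20 μg) to induce inflammation, then dosed orally with derivatives at 200 mg/kg. Serum TNF-α measured.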
The subject of data set [8] is 3T3 cells. The experiment in a line: Percentage of total PUFAs in membranes of 3T3 cells treated with fatty acids (gas chromatography). It is filed as cell-based. Particulars: 100 μM, 48 hours, mean ± SEM of four measures, control 32.4 ± 2.1. An excerpt: To perform these experiments, membranes were extracted and total fatty acids were obtained by hydrolysis in basic medium. Methanolic bases of these fatty acids were quantified by gas chromatography. The data shown are averages of four independent measures of PUFA's mass divided by the total fatty acids and expressed as a percentage. It is also shown is standard error of the mean.
The control corresponds to a culture without the presence of added natural or synthetic fatty acids. Cells in their natural form present PUFAs in their membranes, but the presence in the medium of the D-PUFA molecules of the invention increases these levels of PUFAs in the cell membrane.

The subject of data set [9] is HepG2 cells. The experiment in a line: Liver cancer (HepG2 cells). It is filed as cell-based. To be noted: 72 hours. The protocol:
These charts show the antitumor efficacy of the compounds of this invention against the growth of breast cancer cells, brain (glioma), and lung cancer. […] The other experimental conditions are identical to those described in the preceding paragraph.
as §1

Data set [10] concerns heterotrimeric Gi1 protein. The experiment in a line: Binding of heterotrimeric Gi1 protein to model membranes (centrifugation, immunoblotting). To be noted: phosphatidylcholine:phosphatidylethanolamine (6:4) 2 mM phospholipid, 0.1 μM D-PUFA; control 100 ± 5; in % (unit assumed). An excerpt: The net result is a regulation of cell signalling leading to the reversal of various pathological processes, as shown later. […] The Control is a sample of model membranes in the absence of fatty acids.

With `CCC=CCC=CCC=CCC=CCC=CCCC(O)C(=O)[O-].[Na+]` (centres unmarked) [205B1], the “Expression of α-synuclein” value in [1] is reported as 41%. Besides, the values for the IC50 in data set [2] and in data set [4] were 294 µM and 391 µM, respectively. In data set [3], this molecule returned a Blood pressure of 187 mm Hg. This molecule also had a Temperature of lamellar-to-hexagonal transition in data set [5] of 48.3 °C. In [6], the “Neuronal death (P19 cells) after treatment with NMDA” value (shortened to “Neuronal death (P19 cells)”) is −52%. The “Production of TNF-α in serum” value in data set [7] was 69%.

With `CCC=CCC=CCC=CCC=CCC=CCC=CCC(O)C(=O)O` (centres unmarked) [226A1], in data set [8], the “Percentage of total PUFA” value was 48.9 ± 3.7%. For the same molecule, the “Expression of α-synuclein” value in data set [1] turned out to be 23%. The IC50 in [2] was determined as 85 µM; in [4], 214 µM; in data set [9], 164 µM. The Blood pressure in [3] was determined as 194 mm Hg. Besides, the G protein binding in [10] was found to be 422 ± 26. The same molecule showed a Transition temperature (lamellar to HII) in [5] of 44.4 °C. The “Neuronal death (P19 cells)” value in data set [6] is listed as −230%. The “Increase in cell survival in the presence of NMDA (FIG. 4A)” value in [6] (P19 cells) was “more than 200%”. Also, in data set [7], the “Production of TNF-α in serum” value worked out at 73%.

Consider `CCC=CCC=CCC=CCC=CCC=CCCC(O)C(=O)O` (centres unmarked) [205A1, 2-hydroxy-5,8,11,14,17-eicosapentaenoic acid], for which the “Percentage of total PUFA” value in data set [8] is reported as 46.7 ± 3.4%. Further, in [1], the “Expression of α-synuclein” value came out at 35%. Further, the IC50 in [2] (Homo sapiens, Jurkat) was 376 µM; in [4], 400 µM; in [9] (Homo sapiens, HepG2) it was 401 µM. The molecule also registered a Blood pressure in data set [3] of 193 mm Hg. The same molecule gave a G protein binding in data set [10] of 406 ± 14. For the same molecule, the Transition temperature (lamellar to HII) in data set [5] was found to be 47.9 °C. For the same molecule, the “Neuronal death (P19 cells)” value in [6] is listed as −50%. The “Production of TNF-α in serum” value in [7] was 56%.

With `CCC=CCC=CCC=CCCCCCCC(O)C(=O)[O-].[Na+]` (centres unmarked) [183B1], in data set [1], the “Expression of α-synuclein” value is 43%. Moreover, the results for the IC50 in data set [2] and in [4] were 196 µM and 202 µM, respectively. The molecule also showed a Blood pressure in data set [3] of 197 mm Hg. This molecule displayed a Temperature of lamellar-to-hexagonal transition in [5] of 51.9 °C. For the same molecule, the “Neuronal death (P19 cells)” value in data set [6] is on record as −58%. For the same molecule, the “Production of TNF-α in serum” value in data set [7] worked out at 81%.
